Series [1] is described as follows: CD (circular dichroism) spectroscopy of α-helix structure. The series is classed as physicochemical. The following applies: Table 14; coil-rod-coil peptide complexes. As for the experimental part: To evaluate the structures of a linear plasmid DNA and peptides, CD spectra were analyzed using a Chirascan CD spectrometer (Applied Photophysics, UK). […] The final concentration of the linear plasmid DNA was 30 ng/μL. All the samples were dissolved in H2O. For the formation of the artificial chromosome, a mixture of the peptide and the DNA was incubated for 12 days or longer. Scanning was performed using a 2-mm path-length cuvette. Each scan was repeated three times and averaged. MRE (mean residue ellipticity) was calculated based on the number of amino acid residues.
CD (circular dichroism) spectroscopy was performed as follows.
The CD spectra were analyzed using a Chirascan CD spectrometer (Applied Photophysics, UK). […] All the samples were dissolved in H2O. Each scan was repeated three times using a 2-mm path-length cuvette and averaged. MRE (mean residue ellipticity) was calculated based on the number of amino acid residues.

Series [2] in a line: NMR residual dipolar couplings (RDC) under magnetic field. To be noted: difference of 21.14 T and 16.45 T; 21 residues of α10; methanol-d3/chloroform-d. The format is physicochemical. As for the experimental part: ^1H NMR and ^2D ^1H-^15N IPAP-HSQC (in-phase/anti-phase heteronuclear single quantum coherence) NMR spectra were acquired at 298 K using a Bruker AVANCE IV 900 MHz spectrometer and a BrukerAVANCE Ill HD 700 MHz spectrometer, both equipped with cryogenic probes. The NMR sample of PEG30-α10-PEG30 was dissolved in methanol-d3/chloroform-d (1:1) containing 0.05% TFA at a concentration of 4.26 mM. The acquisition parameters of IPAP were 2048 t2×1024 t1 points, 8 scans, 0.2 second recycle delay, 14 ppm spectral width for ^1H and 26 ppm spectral width for ^15N. The acquired data were split into two data sets, IP and AP, using a TopSpin software (Bruker, Germany). […]
Anisotropic diamagnetic molecules placed in an isotropic solution are aligned when a magnetic field is applied. The behavior of the peptide according to the present disclosure under a magnetic field was analyzed. For this, RDCs (residual dipolar couplings) between ^1H-^15N amide pairs (^1DNH) were measured by NMR (nuclear magnetic resonance) at 16.45 T (700.400 MHz) and 21.14 T (900.230 MHz). […]
Specifically, ^1H NMR and ^2D ^1H-^15N IPAP-HSQC (in-phase/anti-phase heteronuclear single quantum coherence) NMR spectra were analyzed at 298 K using a BrukerAVANCE IV 900 MHz spectrometer and a BrukerAVANCE Ill HD 700 MHz spectrometer equipped with cryogenic probes. […] Peak positions were analyzed using the NMRFAM-SPARKY software.

In the case of “(PEG10)3AUAUAUAUAUAUAUAUAUAUA(PEG10)3 [Example 128]”, the “[θ]222/[θ]208” value in series [1] is on record as 1.15. Moreover, in series [2], the “average RDC value (1DNH, exp)” value worked out at 2.007 Hz.

Source of the values: patent publication US20240424134A1, “PEPTIDE HAVING INDEPENDENTLY STABILIZED HYDROPHOBIC ALPHA HELIX, PEPTIDE COMPLEX COMPRISING SAME AND USES THEREOF” (UIF (University Industry Foundation), Yonsei University, priority 2022, published 2024).
